# Experiments:
# [1] = tested on: C57BL/6 female mice; test: MOG35-55-induced experimental autoimmune encephalomyelitis (EAE); type: in vivo, mouse
# Procedure: (A-B) MOG35-55–antigen specific T-cells were activated by irradiated MOG35-55 presenting APCs, in the presence of HTLV FP or HTLV Scr at 10μM. (A) The proliferative responses were assessed by H^3-thymidine incorporation assay, and normalized to the proliferation of non-activated T-cells. The data is presented as mean inhibition of proliferation. n = 12. (B) IFN-γ was measured by ELISA assay. n = 12. (C-D) EAE was induced in C57BL/6 female mice that were treated with a single dose of HTLV FP, HTLV Scr or vehicle. […] (C) Direct clinical measurement of EAE phenotype in a 5-point scale with increased disease symptoms correlating with higher score value. The data is presented as mean EAE clinical score. (D) Mice were weighed the day before EAE induction, and the change (as a percentage) in weight was recorded. The data is presented as mean change from the initial weight. One-way ANOVA was used for statistical analysis. ^a HTLV FP ≠ Vehicle; ^b HTLV FP ≠ Vehicle & HTLV Scr; ^c HTLV FP ≠ HTLV Scr. ^a,b,cP<0.05. (E) Spleenocytes were harvested at 26 DPI and stimulated using MOG35-55. The proliferative responses were assessed by H^3-thymidine incorporation assay and normalized to the proliferation of non-activated T-cells. The data is presented as counts per minute (CPM). n = 7. (F-G) Spleenocytes were harvested at 26 DPI and stimulated using MOG35-55. Media was collected 48 hours following activation and secretion of IFN-γ and IL4 was measured by ELISA assay. […] One-way ANOVA was used for statistical analysis. *P<0.05;**P<0.01;***P<0.001; ns, not significant.
# EAE was induced in 9-week-old wild type and homozygous C57BL/6 female mice (Harlan Laboratories Israel/ Weizmann Institute animal facilities) by injecting a peptide comprising residues 35–55 of mouse myelin oligodendrocyte glycoprotein (MOG35–55; PolyPeptide Laboratories, Strasbourg, France). Mice were injected subcutaneously above the lumbar spinal cord with 100 μl of emulsion containing 200 μg/mouse of the encephalitogenic peptide in complete Freund’s adjuvant (BD-Difco) enriched with 250 μg/mouse of heat-inactivated Mycobacterium tuberculosis (BD-Difco) at 0 days post-induction (DPI). The HTLV FP was dissolved in PBS and added to the emulsion (1mg/kg). Pertussis toxin (Enzo Life Sciences) at a dose of 300 ng per mouse was injected intraperitoneally immediately after the encephalitogenic injection, as well as at […]. EAE disease was scored using a five-point grading with 0 for no clinical disease; 1, tail weakness; 2, paraparesis (incomplete paralysis of one or two hindlimbs); 3, paraplegia (complete paralysis of one or two hindlimbs); 4, paraplegia with forelimb weakness or paralysis; 5, moribund or dead animals. The mice were examined daily.
# EAE was induced in C57BL/6 female mice that were either treated with a single dose of HTLV FP or vehicle. […] (A) Direct clinical measurement of EAE phenotype in a 5-point scale with increased disease symptoms correlating with higher score value. The data is presented as mean EAE clinical score. (B) Mice were weighed the day before EAE induction, and the change (as a percentage) in weight was recorded. The data is presented as mean change from the initial weight. Student’s t-test was used for statistical analysis. *P<0.05; **P<0.01;***P<0.001. (TIF) Click here for additional data file.
# [2] = tested on: MOG35-55–antigen specific T-cells; test: Cytokine secretion from activated antigen-specific T-cells (ELISA); type: cell-based, mouse (C57Bl/6J); settings: peptide at 10μM, APC-activated T-cells, media 24 hours following activation, n = 12
# Procedure: Fig 2 Modulation of Th1/Th2 gene expression and cytokine secretion from activated T-cells by the HTLV FP. MOG35-55–antigen specific T-cells were activated by irradiated MOG35-55 presenting APCs, in the presence of the HTLV FP at 10μM. (A) Total RNA was isolated 24 hours following activation and mRNA expression levels were determined by qRT-PCR. The values of each gene were normalized to Rpl13a as a housekeeping control. The HTLV FP reduces mRNA expression of Th1 specific genes (IFNG, LTA, and STAT4) and elevates mRNA expression of Th2 specific genes (IL4 and IL10). The data is presented as arbitrary units. n≥3. (B) Media was collected 24 hours following activation and secretion of cytokines was measured by ELISA assay. IFN-γ secretion is inhibited, IL4 secretion is elevated and TNFα is not affected by the HTLV FP. n = 12. One-way ANOVA was used for statistical analysis. *P<0.05; **P<0.01;***P<0.001.
# Antigen-specific T-cells were plated onto round 96-well plates in medium containing RPMI-1640 supplemented with 2.5% fetal calf serum (FCS), 100 U/ml penicillin, 100 μg/ml streptomycin, 50μM β-mercaptoethanol, and 2mM L-glutamine. […] In addition, the relevant peptide was added. Each treatment was made with quadruplicate. Analysis of IFN-γ, IL-4 and TNFα secretion was performed by ELISA 24 hours after cell activation according to standard protocols from R&D systems.
# [3] = tested on: human peripheral T lymphocytes; test: Cytokine secretion from primary human peripheral T-cells (ELISA); type: cell-based; settings: peptide at 10μM, CD3 and CD28 antibodies, media 48 hours following activation, n = 12
# Procedure: Fig 4 Primary human T-cell activation is inhibited upon HTLV FP treatment. Human peripheral T lymphocytes were isolated from whole blood and activated using CD3 and CD28 antibodies, in the presence of HTLV FP or HTLV Scr at 10μM. Media was collected 48 hours following activation and secretion of IL2, IFN-γ and IL10 was measured by ELISA assay. […] One-way ANOVA was used for statistical analysis. *P<0.05; ***P<0.001; ns, not significant.
# Human peripheral T lymphocytes were isolated from whole blood of healthy adult donors by dextran sedimentation and Ficoll (Sigma) gradient separation followed by depletion of B cells using nylon wool column (Unisorb), to which B cells were adsorbed. Cells were incubated in a complete RPMI growth medium (500 ml RPMI Ca/Mg + heat inactivated FCS (10% final) + 5 ml 200 mM L-Glu (2 mM final) +5 ml […] Na pyruvate (1 mM final) + 5 ml Pen Strep antibiotics) for more than 2 h, and then non-adherent cells were harvested and transferred to a new plate, resulting in ~90% CD3+ T lymphocytes. Cells were then used for in vitro assay, in which […] were plated per well in a 96-well plate and activated using CD3 and CD28 antibodies.
# Human peripheral T lymphocytes were isolated from whole blood of healthy donors and were incubated in a complete RPMI growth medium (500 ml RPMI Ca/Mg + heat inactivated FCS (10% final) + 5 ml 200 mM L-Glu (2 mM final) +5 ml […] Na pyruvate (1 mM final) + 5 ml Pen Strep antibiotics). Cells were activated using CD3 and CD28 antibodies, in the presence of relevant peptides at 10μM. Media was collected 48 hours following activation and secretion of IL2 and IFN-γ was determined according to standard protocols from R&D systems.
# [4] = tested on: MOG35-55–antigen specific T-cells; test: In-vitro T-cell proliferative response (H3-thymidine incorporation); type: cell-based, mouse (C57Bl/6J); settings: peptide at 10μM, irradiated MOG35-55 presenting APCs, mean inhibition of proliferation, n = 12
sequence,measurement,setting,value
"ASKAASASPVSAGVTGIGVLMLGVVAMGWASLG [HTLV Scr, scrambled HTLV FP peptide, same amino acid composition and length as the HTLV FP]",clinical symptoms of a cage of treated mice at DPI 17,"[1]; additional experiment, S5 and S6 Movies",exhibiting clinical EAE symptoms
same,"EAE clinical signs, additional experiment","[1]; single dose 1mg/kg, HTLV FP, HTLV Scr or vehicle, period 11 to 16 DPI, 5-point scale",ascent between 11 to 16 DPI
same,IFN-γ secretion,[2],higher potency than the HTLV Scr
same,"IFN-γ secretion, human T-cells",[3],had no effect on T-cell activation
same,"IL2 secretion, human T-cells",[3],had no effect on T-cell activation
same,"IL10 secretion, human T-cells",[3],had no effect on T-cell activation
same,"inhibition of T-cell proliferation, activation by MOG35-55 presenting APCs",[4],higher potency than the HTLV Scr

# — PMC5955599, “The HTLV-1 gp21 fusion peptide inhibits antigen specific T-cell activation in-vitro and in mice” (PLoS Pathogens, 2018)
